Results published in US12344610B2, “APOL1 inhibitors and methods of use” (Maze Therapeutics, Inc., priority 2022, dated 2025).
Where two headings read alike, the source gives them in different places.

Experiments:
Type in all cases: cell-based
[1] = test system: HEK293 cells overexpressing APOL1 G2; assay: APOL1 G2 HEK293 cell rescue assay (reversal of cell death caused by overexpression of APOL1); settings: geometric mean of at least 2 assay runs, † = single assay run
Procedure, shortened: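 Each compound tested in duplicate wells on one plate per run, with values usually the geometric mean across at least two runs on different days, occasionally from one run only. Read-out: concentration giving half-maximal rescue of APOL1 G2 overexpression-induced death of HEK293 cells.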

[2] = test system: HEK293 clonal cell line overexpressing APOL1 G1; assay: APOL1 G1 HEK293 cell rescue assay (Example B3); settings: geometric mean of at least 2 runs, † = single run, ¥ = concentration at 50% rescue estimated (no sigmoidal curve)
Procedure, shortened: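 Rescue of cell death caused by APOL1 G1 overexpression was measured in a clonal HEK293 line. Compounds were tested in duplicate on one plate, and EC50s were geometric means across at least two runs on different days. Some values are estimated 50%-rescue concentrations where curve fitting failed.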

[3] = test system: human immortalized podocytes inducibly expressing APOL1 G2; assay: APOL1 G2 podocyte cell rescue assay (Example B4); settings: differentiated human podocytes, doxycycline-induced APOL1 G2, CellTiter-Glo, geometric mean of at least 2 runs, † = single run
Method: APOL1 G2 human immortalized podocyte viability assay for measurement of cytotoxicity reversal by compound (APOL1 G2 podocyte cell rescue assay).
Cell Handling. The hTERT-immortalized kidney podocyte cell line was procured from the laboratory of Dr. Moin Saleem at the University of Bristol, UK (Nephrology 17 (2012) 525-531; doi:10.1111/j.1440-1797.2012.01619.x; herein incorporated by reference in its entirety). Parental and engineered cell lines were cultured in RPMI 1640 media (Gibco, 11875093) with 10% Tet System Approved FBS (Takara, 631101). The engineered cell line was maintained under selection (2.5 μg/mL puromycin). Cell lines were maintained and engineered at 33° C. Cell cultures were transferred to 37° C. for 10 to 14 days to initiate differentiation (Nephrology 17 (2012) 525-531; doi:10.1111/j.1440-1797.2012.01619.x; herein incorporated by reference in its entirety). During this time, media was refreshed every 3 days. After differentiation, cells engineered to inducibly express APOL1 G2 were used in the podocyte cell rescue assay.
Cell Line Engineering. The APOL1 G2 coding sequence was cloned into the pLVX-TetOne-Puro vector and verified by sequencing (Genscript Biotech). This construct was designed to have a C-terminal HiBiT tag. Lentiviral packaging of the vector was conducted using the Lenti-X Packaging Single Shots (VSVG) system according to manufacturer instructions (Takara Bio, 631275). A stable cell line was generated by transfecting the parental podocyte cell line with the concentrated virus in media with 5 μg/mL polybrene (Sigma, TR-1003-G). Media was changed the following day. 72 hours post transfection, 2.5 μg/mL puromycin (Gibco, A1113803) was added to the cells and cells were maintained in selection media thereafter. This APOL1 G2 stable cellular pool was subjected to a stringent limiting dilution to generate a pure stable clone (Podocyte/pLVX-TetOne APOL1 G2/clone D10) capable of inducible expression of APOL1 G2.
Assay Setup. T175 flasks containing differentiated podocytes engineered to inducibly express APOL1 G2 (Podocyte/pLVX-TetOne APOL1 G2/clone D10) were washed once with 15 mL of DPBS (Thermo Fisher, 14190-144). These flasks were each trypsinized with 3 mL of prewarmed TrypLE Express (Gibco, 12605-010) and incubated at 37° C. with 5% CO2 until cells detached and neutralized with 7 mL of prewarmed assay media (RPMI 1640 media with 10% Tet System Approved FBS, no selection agent). Cells were pooled and the resulting suspension was gently mixed. The cell suspension was counted using a Countess Cell Counting Chamber (Invitrogen) and the cell concentration was adjusted to 240,000 cells/mL using assay media. Next, 25 μL of a 480 ng/mL working stock of doxycycline diluted in assay media was added to an assay ready plate. All experiments were performed in 384-well, white, solid bottom, tissue culture treated plates (Greiner, 781080). The assay ready compound plates were generated with duplicate 8-point compound dilution series that consisted of 3-fold stepwise dilutions (0.4% DMSO final). The plates were centrifuged at 1000 rpm for 1 minute. 25 μL of diluted cell suspension (final cell density=6,000 cells/well) was added to each well. The plates were centrifuged again at 1000 rpm for 1 minute and then incubated in a humidified incubator (37° C. with 5% CO2). After 95 hours, the assay plates were removed from the incubator and allowed to equilibrate to room temperature for 1 hour. CellTiter-Glo® reagent (Promega, G7570) was prepared according to the manufacturer's instructions. 25 μL of CellTiter-Glo® reagent was added to each well. Assay plates were sealed with foil and mixed for 5 minutes on an orbital shaker (500 rpm) to induce cell lysis. Plates were centrifuged at 1000 rpm for 1 minute. 10 minutes after CellTiter-Glo® reagent addition, an Envision plate reader (Perkin Elmer) was used to measure the luminescent signal of each assay plate. Collaborative Drug Discovery software was utilized for graphing data. […]

[4] = test system: Trypanosoma brucei Lister 427 VSG221 with APOL1 G0 recombinant protein; assay: APOL1 G0 trypanosome cell rescue assay (Example B5); settings: geometric mean of at least 2 assay runs, † = single assay run
Procedure, shortened: (§1)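 Luminescent ATP read-out (CellTiter-Glo) of trypanosome viability after 20 h at 37° C. Bloodstream T. brucei Lister 427 VSG221, 250/well in modified HMI-9, were exposed to recombinant mature APOL1 (aa 28-398) from a 2 μg/mL addition, plus compound in 11-point 2-fold series.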

[5] = test system: Trypanosoma brucei Lister 427 VSG221 with APOL1 G1 recombinant protein; assay: APOL1 G1 trypanosome cell rescue assay (Example B5); settings: geometric mean of at least 2 assay runs, † = single assay run
Procedure, shortened: as §1

[6] = test system: Trypanosoma brucei Lister 427 VSG221 with APOL1 G2 recombinant protein; assay: APOL1 G2 trypanosome cell rescue assay (Example B5); settings: geometric mean of at least 2 assay runs, † = single assay run
Procedure, shortened: as §1

[7] = Homo sapiens, HEK293, HEK293 overexpressing APOL1 G2
[8] = Homo sapiens, HEK293, HEK293 clonal line overexpressing APOL1 G1
[9] = Trypanosoma brucei, 20 h, read-out: APOL1 G0 Trypanosome Rescue EC50, Trypanosoma brucei Lister 427 VSG221 with APOL1 G0 recombinant protein, 20 hours, CellTiter-Glo
[10] = Trypanosoma brucei, 20 h, read-out: APOL1 G1 Trypanosome Rescue EC50, Trypanosoma brucei Lister 427 VSG221 with APOL1 G1 recombinant protein, 20 hours, CellTiter-Glo
[11] = Trypanosoma brucei, 20 h, read-out: APOL1 G2 Trypanosome Rescue EC50, Trypanosoma brucei Lister 427 VSG221 with APOL1 G2 recombinant protein, 20 hours, CellTiter-Glo
[12] = HEK293 clonal line overexpressing APOL1 G1

SMILES | EC50 [1, 7] | EC50 [2, 8] | EC50 [4, 9] | EC50 [5, 10] | EC50 [6, 11] | also measured
O=C(NC1CCS(=O)(=O)CC1)c1ccc(OCCN2CCC3(CC2)C(=O)Nc2ccc(Cl)cc23)cc1F [Compound 240, 4-(2-{5-chloro-2-oxo-1,2-dihydrospiro[indole-3,4′-piperidin]-1′-yl}ethoxy)-N-(1,1-dioxo-1λ^6-thian-4-yl)-2-fluorobenzamide] | 52.6 nM | 282 nM | – | – | – | EC50 ([3]; Homo sapiens): 13.9 nM
O=C(NC1CCS(=O)(=O)C1)c1ccc(OCCN2CCC3(CC2)C(=O)Nc2ccc(Cl)cc23)cc1F (single isomer, unassigned) [Compound 242, 4-(2-{5-chloro-2-oxo-1,2-dihydrospiro[indole-3,4′-piperidin]-1′-yl}ethoxy)-N-[(3S) or (3R)-1,1-dioxo-1λ^6-thiolan-3-yl]-2-fluorobenzamide] | 74 nM | 316 nM | – | – | – | EC50 [3]: 19.7 nM
C[C@]1(O)C[C@@H](N2C(=O)CCc3cc(OCCN4CCC5(CC4)C(=O)Nc4ccc(C#N)cc45)cnc32)C1 [Compound 404, 2-oxo-1′-[2-({7-oxo-8-[(cis)-3-hydroxy-3-methylcyclobutyl]-5,6,7,8-tetrahydro-1,8-naphthyridin-3-yl}oxy)ethyl]-1,2-dihydrospiro[indole-3,4′-piperidine]-5-carbonitrile] | 129 nM | 247 nM | 425 nM | 554 nM | 210 nM | –
O=C1CCc2cc(OCCN3CCC4(CC3)C(=O)Nc3ccc(Cl)cc34)cnc2N1[C@H]1C[C@@H](O)C1 [Compound 190, 5-chloro-1′-[2-({7-oxo-8-[(cis)-3-hydroxycyclobutyl]-5,6,7,8-tetrahydro-1,8-naphthyridin-3-yl}oxy)ethyl]-1,2-dihydrospiro[indole-3,4′-piperidin]-2-one] | 54.7 nM | 105 nM | 92.1 nM | 104 nM | 35.7 nM | –
CS(=O)(=O)C1(c2ccc(OCCN3CCC4(CC3)C(=O)Nc3ccc(Cl)cc34)cc2)CC(O)C1 (stereo not shown) [Compound 268, 5-chloro-1′-{2-[4-(3-hydroxy-1-methanesulfonylcyclobutyl)phenoxy]ethyl}-1,2-dihydrospiro[indole-3,4′-piperidin]-2-one] | – | – | – | – | – | EC50 ([1]; HEK293 overexpressing APOL1 G2): 53.4 nM; EC50 [2, 12]: 211 nM; EC50 ([4]; read-out: APOL1 G0 Trypanosome Rescue EC50, Trypanosoma brucei Lister 427 VSG221 with APOL1 G0 recombinant protein, 20 hours, CellTiter-Glo): 108 nM; EC50 ([5]; read-out: APOL1 G1 Trypanosome Rescue EC50, Trypanosoma brucei Lister 427 VSG221 with APOL1 G1 recombinant protein, 20 hours, CellTiter-Glo): 121 nM; EC50 ([6]; read-out: APOL1 G2 Trypanosome Rescue EC50, Trypanosoma brucei Lister 427 VSG221 with APOL1 G2 recombinant protein, 20 hours, CellTiter-Glo): 32.7 nM
O=C1Nc2ccc(Cl)cc2C12CCN(CCOc1cnc(CCO)nc1)CC2 [Compound 331, 5-chloro-1′-(2-{[2-(2-hydroxyethyl)pyrimidin-5-yl]oxy}ethyl)-1,2-dihydrospiro[indole-3,4′-piperidin]-2-one] | 166 nM | 440 nM | – | – | – | EC50 ([3]; Homo sapiens): 85.7 nM
O=C(NC1CCS(=O)(=O)C1)c1ccc(OCCN2CCC3(CC2)C(=O)Nc2ccc(Cl)cc23)cc1F (single isomer, unassigned) [Compound 243, 4-(2-{5-chloro-2-oxo-1,2-dihydrospiro[indole-3,4′-piperidin]-1′-yl}ethoxy)-N-[(3R) or (3S)-1,1-dioxo-1λ^6-thiolan-3-yl]-2-fluorobenzamide] | – | – | – | – | – | EC50 ([1]; HEK293 overexpressing APOL1 G2): 46 nM; EC50 [2, 12]: 208 nM; EC50 [3]: 4.11 nM
CC1(O)CC(CN2C(=O)CCc3cc(OCCN4CCC5(CC4)C(=O)Nc4ccc(C(F)F)cc45)cnc32)C1 (single isomer, unassigned) [Compound 311, 5-(difluoromethyl)-1′-{2-[(7-oxo-8-{[(cis) or (trans)-3-hydroxy-3-methylcyclobutyl]methyl}-5,6,7,8-tetrahydro-1,8-naphthyridin-3-yl)oxy]ethyl}-1,2-dihydrospiro[indole-3,4′-piperidin]-2-one] | 38.3 nM | 100 nM | 37.4 nM | 50.3 nM | 13.8 nM | –
O=C1Nc2ccc(Cl)cc2C12CCN(CCOc1cnc(C3(O)CC3)nc1)CC2 [Compound 308, 5-chloro-1′-(2-{[2-(1-hydroxycyclopropyl)pyrimidin-5-yl]oxy}ethyl)-1,2-dihydrospiro[indole-3,4′-piperidin]-2-one] | 112 nM | 196 nM | 335 nM | 435 nM | 150 nM | –
